row,melting point [°C],SMILES
1,102,"C[C@H]1CN(c2ccc3ccccc3n2)CCN1CCCCC1(C(=O)NCC(F)(F)F)c2ccccc2-c2ccccc21 [Example 38, 9-{4-[(S)-2-methyl-4-quinolin-2-yl-piperazin-1-yl]-butyl}-9H-fluorene-9-carboxylic acid-(2,2,2-trifluoro-ethyl)-amide]"
2,172,"C[C@@H]1CN(c2ncc3ccccc3n2)C[C@H](C)N1CCCCC1(C(=O)NCc2ccc(F)cc2)c2ccccc2-c2ccccc21 [Example 67, 9-[4-(cis-2,6-dimethyl-4-quinazoline-2-yl-piperazin-1-yl)-butyl]-9H-fluorene-9-carboxylic acid-4-fluoro-benzylamide]"
3,60,"O=C(NCC(F)(F)F)C1(CCCCN2CCN(c3nc4ccccc4n3Cc3ccccc3)CC2)c2ccccc2-c2ccccc21 [Example 13, 9-{4-[4-(1-benzyl-1H-benzimidazol-2-yl)-piperazin-1-yl]-butyl}-9H-fluorene-9-carboxylic acid-(2,2,2-trifluoro-ethyl)-amide]"
4,60,"Cn1c(N2CCN(CCCCC3(C(=O)NCC(F)(F)F)c4ccccc4-c4ccccc43)CC2)nc2cccnc21 [Example 15, 9-{4-[4-(3-methyl-3H-imidazo[4,5]pyridin-2-yl)-piperazin-1-yl]-butyl}-9H-fluorene-9-carboxylic acid-(2,2,2-trifluoro-ethyl)-amide]"
5,177,"C[C@@H]1CN(c2ccc3ccccc3n2)C[C@H](C)N1CCCCC1(C(=O)NCC(F)(F)F)c2ccccc2Oc2ccccc21 [Example 111, 9-[4-(cis-2,6-dimethyl-4-quinolin-2-yl-piperazin-1-yl)-butyl]-9H-xanthene-9-carboxylic acid-(2,2,2-trifluoro-ethyl)-amide]"
6,126,"CCCNC(=O)C1(CCCCN2CCN(c3nc4ccccc4n3C)CC2)c2ccccc2-c2ccccc21 [Example 91, 9-{4-[4-(1-methyl-1H-benzimidazol-2-yl)-piperazin-1-yl]-butyl}-9H-fluorene-9-carboxylic acid propylamide]"
7,145,"COc1ccc(CNC(=O)C2(CCCCN3CCN(c4nc5ccccc5s4)CC3)c3ccccc3-c3ccccc32)cc1 [Example 76, 9-[4-(4-benzothiazol-2-yl-piperazin-1-yl)-butyl]-9H-fluorene-9-carboxylic acid-4-methoxy-benzylamide]"
8,44,"COc1ccc(CNC(=O)C2(CCCCN3CCN(c4ccc5ccccc5n4)CC3)c3ccccc3-c3ccccc32)c(OC)c1 [Example 82, 9-[4-(4-quinolin-2-yl-piperazin-1-yl)-butyl]-9H-fluorene-9-carboxylic acid-2,4-dimethoxy-benzylamide]"
9,166 to 168,"O=C(NCc1ccncc1)C1(CCCCN2CCN(c3ccc4ccccc4n3)CC2)c2ccccc2-c2ccccc21 [Example 88, 9-[4-(4-quinolin-2-yl-piperazin-1-yl)-butyl]-9H-fluorene-9-carboxylic acid-(pyridin-4-ylmethyl)-amide]"
10,160,"O=C(NCC(F)(F)F)C1(CCCCN2CCN(c3ccc4c(Cl)cccc4n3)CC2)c2ccccc2Oc2ccccc21 [Example 104, 9-{4-[4-(5-chloro-quinolin-2-yl)-piperazin-1-yl]-butyl}-9H-xanthene-9-carboxylic acid-(2,2,2-trifluoro-ethyl)-amide]"
11,155,"Cn1c(N2CCN(CCCCC3(C(=O)NCC(F)(F)F)c4ccccc4-c4ccccc43)CC2)nc2cc(Cl)ccc21 [Example 19, 9-{4-[4-(5-chloro-1-methyl-1H-benzimidazol-2-yl)-piperazin-1-yl]-butyl}-9H-fluorene-9-carboxylic acid-(2,2,2-trifluoro-ethyl)-amide]"
12,162,"C[C@@H]1CN(c2ccc3ccccc3n2)C[C@H](C)N1CCCCC1(C(=O)NCc2ccc(F)c(F)c2)c2ccccc2-c2ccccc21 [Example 98, 9-[4-(cis-2,6-dimethyl-4-quinolin-2-yl-piperazin-1-yl)-butyl]-9H-fluorene-9-carboxylic acid-3,4-difluoro-benzylamide]"
13,53 to 55,"COC(=O)CNC(=O)C1(CCCCN2CCN(c3ccc4ccccc4n3)CC2)c2ccccc2-c2ccccc21 [Example 95, 9-[4-(4-quinolin-2-yl-piperazin-1-yl)-butyl]-9H-fluorene-9-carboxylic acid-(methoxycarbonyl-methyl)-amide]"
14,45 to 50,"O=C(NCc1cccs1)C1(CCCCN2CCN(c3ccc4ccccc4n3)CC2)c2ccccc2-c2ccccc21 [Example 90, 9-[4-(4-quinolin-2-yl-piperazin-1-yl)-butyl]-9H-fluorene-9-carboxylic acid-(thiophen-2-ylmethyl)-amide]"
15,178,"O=C(NCC(F)(F)F)C1(CCCCN2CCN(c3ccc4ccccc4n3)CC2)c2ccccc2Oc2ccccc21 [Example 103, 9-[4-(4-quinolin-2-yl-piperazin-1-yl)-butyl]-9H-xanthene-9-carboxylic acid-(2,2,2-trifluoro-ethyl)-amide]"
16,169,"C[C@@H]1CN(c2ccc3ccccc3n2)C[C@H](C)N1CCCCC1(C(=O)NCC(F)(F)F)c2ccccc2-c2ccccc21 [Example 42, 9-[4-(cis-2,6-dimethyl-4-quinolin-2-yl-piperazin-1-yl)-butyl]-9H-fluorene-9-carboxylic acid-(2,2,2-trifluoro-ethyl)-amide]"
